This passage reports EC50 and solubility results from US20250382344A1, “Soluble GLP1/GIP/NPY2 Receptor Triple Agonists” (Boehringer Ingelheim International GmH, priority 2024, published 2025).

The target of one data set is T1, hGIPR (Homo sapiens, UniProt P48546).
T1 construct: expressed in transfected cells; host or cells: CHO CRE-luciferase reporter cells
T1 sequence (P48546 22-466): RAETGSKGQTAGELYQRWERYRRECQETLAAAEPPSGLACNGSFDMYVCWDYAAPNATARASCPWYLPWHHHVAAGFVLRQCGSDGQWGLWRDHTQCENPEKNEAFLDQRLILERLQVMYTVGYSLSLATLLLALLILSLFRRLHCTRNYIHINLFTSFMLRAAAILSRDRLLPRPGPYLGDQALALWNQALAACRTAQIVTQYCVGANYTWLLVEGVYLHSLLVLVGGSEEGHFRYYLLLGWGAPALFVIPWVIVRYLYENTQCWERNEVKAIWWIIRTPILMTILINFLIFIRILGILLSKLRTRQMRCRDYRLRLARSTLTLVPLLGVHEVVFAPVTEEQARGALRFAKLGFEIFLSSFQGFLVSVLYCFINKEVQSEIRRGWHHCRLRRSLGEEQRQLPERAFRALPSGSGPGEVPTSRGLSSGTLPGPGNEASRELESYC
As to the kind of experiment: hGIPR CreLuc assay in 0.5% and 100% plasma (CHO CRE-luciferase reporter cells). The format is cell-based. The settings on record: 0.5% human plasma, read-out: hGIPR 0.5% hP.

The target in another data set is T2, hNPY2R (Homo sapiens, UniProt P49146).
T2 construct: expressed in transfected cells; host or cells: HEK-293 CRE-luciferase reporter cells
T2 sequence (P49146 1-381): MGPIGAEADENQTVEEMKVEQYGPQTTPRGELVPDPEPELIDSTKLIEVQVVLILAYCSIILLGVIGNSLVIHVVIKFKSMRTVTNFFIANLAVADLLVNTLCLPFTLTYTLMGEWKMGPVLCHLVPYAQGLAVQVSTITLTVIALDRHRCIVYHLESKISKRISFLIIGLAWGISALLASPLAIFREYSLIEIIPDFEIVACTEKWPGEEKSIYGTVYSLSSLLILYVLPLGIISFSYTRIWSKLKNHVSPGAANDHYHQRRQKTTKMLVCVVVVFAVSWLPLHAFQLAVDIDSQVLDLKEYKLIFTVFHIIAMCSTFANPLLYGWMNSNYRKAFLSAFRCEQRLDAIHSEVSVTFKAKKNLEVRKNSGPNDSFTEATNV
The experiment in a line: hNPY2R CreLuc assay in 0.5% and 100% plasma (HEK-293 CRE-luciferase reporter cells). The format is cell-based. The following applies: HEK-293 reporter cells. Background: In a reporter assay the amount or activity of a reporter protein is the signal.

Data set [1] can be described thus: Solubility in 0.1 M phosphate buffer at pH 7. The format is physicochemical. The settings on record: 0.1 M phosphate buffer at pH 7, 10 mg/mL final peptide concentration, shaking 2 hours at room temperature, peptides as TFA-salts; measured sample pH 6.5-7.0.
[2] abbreviates: 0.5% human plasma, read-out: hNPY2R 0.5% hP.

Like-named read-outs stand apart in the source and are kept apart here.

As to `CC[C@H](C)[C@H](NC(=O)[C@H](CO)NC(=O)[C@H](Cc1ccc(O)cc1)NC(=O)[C@H](CC(=O)O)NC(=O)[C@H](CO)NC(=O)[C@@H](NC(=O)[C@H](Cc1ccccc1)NC(=O)[C@@H](NC(=O)CNC(=O)[C@H](CCC(=O)O)NC(=O)C(C)(C)NC(=O)[C@@H](N)Cc1ccc(O)cc1)[C@@H](C)O)[C@@H](C)O)C(=O)N[C@@H](C)C(=O)N[C@@H](CC(C)C)C(=O)N[C@@H](CCC(=O)O)C(=O)N[C@@H](CCCCN)C(=O)N[C@@H](CCC(N)=O)C(=O)N[C@@H](C)C(=O)N[C@@H](CCC(N)=O)C(=O)NC(C)(C)C(=O)N[C@@H](C)C(=O)N[C@@H](Cc1ccccc1)C(=O)N[C@H](C(=O)N[C@@H](CCCNC(=N)N)C(=O)N[C@@H](Cc1c[nH]cn1)C(=O)N[C@@H](CC(C)C)C(=O)N[C@H](C(=O)N[C@@H](CC(N)=O)C(=O)N[C@@H](CCCCNC(=O)[C@@H](N)CCCCNC(=O)CC[C@H](NC(=O)CC[C@H](NC(=O)CC[C@H](NC(=O)CC[C@H](NC(=O)CC[C@H](NC(=O)CC[C@H](NC(=O)CCCCCCCCCCCCCCCCC(=O)O)C(=O)O)C(=O)O)C(=O)O)C(=O)O)C(=O)O)C(=O)O)C(=O)NC(C)(C)C(=O)N[C@H](C(=O)N[C@@H](CCCNC(=N)N)C(=O)N[C@@H](CCC(N)=O)C(=O)N[C@@H](CCCNC(=N)N)C(=O)N[C@@H](Cc1ccc(O)cc1)C(N)=O)[C@@H](C)O)[C@@H](C)CC)C(C)C` [Compound 165, Y-Aib-E-G-T-F-T-S-D-Y-S-I-A-L-E-K-Q-A-Q-Aib-A-F-V-R-H-L-I-N-K(1,3)-Aib-T-R-Q-R-Y-NH2.C18DA-gGlu-gGlu-gGlu-gGlu-gGlu-gGlu-eLys(1,2)], the EC50 on hGIPR worked out at 0.3 nM; at hNPY2R (setting [2]), 17.1 nM. Also, in data set [1], the solubility at 2 h stood at 5000 µg/mL.

On to `CC[C@H](C)[C@H](NC(=O)[C@H](CC(C)C)NC(=O)[C@H](Cc1c[nH]cn1)NC(=O)[C@H](CCCNC(=N)N)NC(=O)[C@@H](NC(=O)[C@H](Cc1ccccc1)NC(=O)[C@H](C)NC(=O)[C@H](CCC(=O)O)NC(=O)[C@H](CCC(N)=O)NC(=O)[C@H](C)NC(=O)[C@H](CCC(N)=O)NC(=O)[C@H](CCCCN)NC(=O)[C@H](CCC(=O)O)NC(=O)[C@H](CC(C)C)NC(=O)C(C)(C)NC(=O)[C@@H](NC(=O)[C@H](CO)NC(=O)[C@H](Cc1ccc(O)cc1)NC(=O)[C@H](CC(=O)O)NC(=O)[C@H](CO)NC(=O)[C@@H](NC(=O)[C@H](Cc1ccccc1)NC(=O)[C@@H](NC(=O)CNC(=O)[C@H](CCC(=O)O)NC(=O)C(C)(C)NC(=O)[C@@H](N)Cc1ccc(O)cc1)[C@@H](C)O)[C@@H](C)O)[C@@H](C)CC)C(C)C)C(=O)N[C@@H](CC(N)=O)C(=O)N[C@@H](CCCCNC(=O)[C@@H](N)CCCCNC(=O)CC[C@H](NC(=O)CC[C@H](NC(=O)CC[C@H](NC(=O)CC[C@H](NC(=O)CC[C@H](NC(=O)CC[C@H](NC(=O)CCCCCCCCCCCCCCCCC(=O)O)C(=O)O)C(=O)O)C(=O)O)C(=O)O)C(=O)O)C(=O)O)C(=O)NC(C)(C)C(=O)N[C@H](C(=O)N[C@@H](CCCNC(=N)N)C(=O)N[C@@H](CCC(N)=O)C(=O)N[C@@H](CCCNC(=N)N)C(=O)N[C@@H](Cc1ccc(O)cc1)C(N)=O)[C@@H](C)O` [Compound 170, Y-Aib-E-G-T-F-T-S-D-Y-S-I-Aib-L-E-K-Q-A-Q-E-A-F-V-R-H-L-I-N-K(1,3)-Aib-T-R-Q-R-Y-NH2.C18DA-gGlu-gGlu-gGlu-gGlu-gGlu-gGlu-eLys(1,2)], for which the values for the EC50 at hGIPR and at hNPY2R (setting [2]) were 0.4 nM and 43.8 nM, respectively. For the same compound, the solubility at 2 h in data set [1] is 4600 µg/mL.

With `CC[C@H](C)[C@H](NC(=O)[C@H](CC(C)C)NC(=O)[C@H](Cc1c[nH]cn1)NC(=O)[C@H](CCCNC(=N)N)NC(=O)[C@@H](NC(=O)[C@H](Cc1ccccc1)NC(=O)[C@H](C)NC(=O)C(C)(C)NC(=O)[C@H](CCC(N)=O)NC(=O)[C@H](C)NC(=O)[C@H](CCC(N)=O)NC(=O)[C@H](CCCCN)NC(=O)[C@H](CCC(=O)O)NC(=O)[C@H](CC(C)C)NC(=O)C(C)(C)NC(=O)[C@@H](NC(=O)[C@H](CO)NC(=O)[C@H](Cc1ccc(O)cc1)NC(=O)[C@H](CC(=O)O)NC(=O)[C@H](CO)NC(=O)[C@@H](NC(=O)[C@H](Cc1ccccc1)NC(=O)[C@@H](NC(=O)CNC(=O)[C@H](CCC(=O)O)NC(=O)C(C)(C)NC(=O)[C@@H](N)Cc1ccc(O)cc1)[C@@H](C)O)[C@@H](C)O)[C@@H](C)CC)C(C)C)C(=O)N[C@@H](CC(N)=O)C(=O)N[C@@H](CCCCNC(=O)[C@@H](N)CCCCNC(=O)CC[C@H](NC(=O)CC[C@H](NC(=O)CC[C@H](NC(=O)CC[C@H](NC(=O)CC[C@H](NC(=O)CC[C@H](NC(=O)CCCCCCCCCCCCCCCCC(=O)O)C(=O)O)C(=O)O)C(=O)O)C(=O)O)C(=O)O)C(=O)O)C(=O)N[C@@H](Cc1c[nH]c2ccccc12)C(=O)N[C@H](C(=O)N[C@@H](CCCNC(=N)N)C(=O)N[C@@H](CCC(N)=O)C(=O)N[C@@H](CCCNC(=N)N)C(=O)N[C@@H](Cc1ccc(O)cc1)C(N)=O)[C@@H](C)O` [Compound 172, Y-Aib-E-G-T-F-T-S-D-Y-S-I-Aib-L-E-K-Q-A-Q-Aib-A-F-V-R-H-L-I-N-K(1,3)-W-T-R-Q-R-Y-NH2.C18DA-gGlu-gGlu-gGlu-gGlu-gGlu-gGlu-eLys(1,2)], the EC50 amounted to 1.7 nM at hGIPR and 136 nM at hNPY2R (100% human plasma, read-out: hNPY2R 100% hP). Also, in data set [1], the solubility at 2 h came out at 3100 µg/mL.

As to `CC[C@H](C)[C@H](NC(=O)[C@H](CC(C)C)NC(=O)[C@H](Cc1c[nH]cn1)NC(=O)[C@H](CCCNC(=N)N)NC(=O)[C@@H](NC(=O)[C@H](Cc1ccccc1)NC(=O)[C@H](C)NC(=O)C(C)(C)NC(=O)[C@H](CCC(N)=O)NC(=O)[C@H](C)NC(=O)[C@H](CCC(N)=O)NC(=O)[C@H](CCCCN)NC(=O)[C@H](CCC(=O)O)NC(=O)[C@H](CC(C)C)NC(=O)C(C)(C)NC(=O)[C@@H](NC(=O)[C@H](CO)NC(=O)[C@H](Cc1ccc(O)cc1)NC(=O)[C@H](CC(=O)O)NC(=O)[C@H](CO)NC(=O)[C@@H](NC(=O)[C@H](Cc1ccccc1)NC(=O)[C@@H](NC(=O)CNC(=O)[C@H](CCC(=O)O)NC(=O)C(C)(C)NC(=O)[C@@H](N)Cc1ccc(O)cc1)[C@@H](C)O)[C@@H](C)O)[C@@H](C)CC)C(C)C)C(=O)N[C@@H](CC(N)=O)C(=O)N[C@@H](CCCCNC(=O)CC[C@H](NC(=O)CC[C@H](NC(=O)CC[C@H](NC(=O)CC[C@H](NC(=O)CC[C@H](NC(=O)CCCCCCCCCCCCCCCCCCC(=O)O)C(=O)O)C(=O)O)C(=O)O)C(=O)O)C(=O)O)C(=O)NC(C)(C)C(=O)N[C@H](C(=O)N[C@@H](CCCNC(=N)N)C(=O)N[C@@H](CCC(N)=O)C(=O)N[C@@H](CCCNC(=N)N)C(=O)N[C@@H](Cc1ccc(O)cc1)C(N)=O)[C@@H](C)O` [Compound 176, Y-Aib-E-G-T-F-T-S-D-Y-S-I-Aib-L-E-K-Q-A-Q-Aib-A-F-V-R-H-L-I-N-K(1,3)-Aib-T-R-Q-R-Y-NH2.C20DA-gGlu-gGlu-gGlu-gGlu-gGlu(1,2)], the results for the EC50 on hGIPR and at hNPY2R (setting [2]) were 0.6 nM and 32.8 nM, respectively. Besides, the solubility at 2 h in data set [1] came out at 5300 µg/mL.

A word on the solubility: it is the concentration that dissolves in the medium under given conditions.
